Experimental data as given in PubChem BioAssay (NCI).
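Test compounds were applied to cells in 96-well plates for 48 hours at 5 doses. At the TGI there is no net growth.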

How the values were obtained:
Experiment in all cases: DTP human tumour cell line panel, 48 h
ACHN renal = system: ACHN renal
SF-295 CNS = system: SF-295 CNS
SK-MEL-2 melanoma = system: SK-MEL-2 melanoma
HT29 colon = system: HT29 colon
HCC-2998 colon = system: HCC-2998 colon
UO-31 renal = system: UO-31 renal
KM20L2 colon = system: KM20L2 colon
DMS 273 small cell lung = system: DMS 273 small cell lung
LXFL 529 NSCLC = system: LXFL 529 NSCLC
COLO 205 colon = system: COLO 205 colon
SN12C renal = system: SN12C renal
DLD-1 colon = system: DLD-1 colon

SMILES	TGI (ACHN renal)	TGI (SF-295 CNS)	TGI (SK-MEL-2 melanoma)	TGI (HT29 colon)	TGI (HCC-2998 colon)	TGI (UO-31 renal)	TGI (KM20L2 colon)	TGI (DMS 273 small cell lung)	TGI (LXFL 529 NSCLC)	TGI (COLO 205 colon)	TGI (SN12C renal)	TGI (DLD-1 colon)
O=C(N/N=C/c1cc(Br)cc(Br)c1[O-])c1ccccc1O.O=C(N/N=C/c1cc(Br)cc(Br)c1[O-])c1ccccc1O.[Cu+2]	2.42 µM	1.24 µM	1.93 µM	2.5 µM	1.48 µM	1.5 µM	2.09 µM					
OCc1ccc(C2CC(c3ccco3)=NN2c2ccccc2)o1 (stereo unspecified)	> 100 µM	> 100 µM	> 100 µM	> 100 µM		> 100 µM	> 100 µM	> 100 µM	> 100 µM	> 100 µM	> 100 µM	
COc1c(C(C)C)cc2c3c1OC(=O)[C@@]31CCCC(C)(C)C1CC2 (stereo partly specified)	> 100 µM	78.7 µM	84 µM	> 100 µM	> 100 µM	57.8 µM	> 100 µM	> 100 µM	49.8 µM	31.9 µM	> 100 µM	> 100 µM
O=C(CN(c1ccccc1)c1ccccc1)n1nnc2ccccc21	> 100 µM	> 100 µM	96 µM	> 100 µM	> 100 µM	55.2 µM	> 100 µM	> 100 µM	> 100 µM	> 100 µM	> 100 µM	> 100 µM
COc1ccc(C2COc3cc(O)c(O)cc3C2)cc1 (stereo unspecified)		205 µM	146 µM	204 µM	184 µM	279 µM	221 µM	160 µM		27.8 µM	166 µM	25.3 µM
Nc1ccn(C2OC(CO)C(O)C2O)c(=O)c1 (stereo unspecified)		> 625 µM		> 625 µM	> 625 µM	> 625 µM	> 625 µM	> 625 µM		> 625 µM	381 µM	> 625 µM
O=c1c(C(c2ccc(Cl)cc2)c2c(O)c3ccccc3n(-c3ccccc3)c2=O)c(O)c2ccccc2n1-c1ccccc1	98.5 µM	> 100 µM	86.1 µM		> 100 µM	> 100 µM	> 100 µM	> 100 µM	> 100 µM	> 100 µM	> 100 µM	> 100 µM
COc1cc2c3c(c1OC)C1(C=CC(=O)C=C1)C[C@H]3N(C)CC2	> 100 µM	> 100 µM	> 100 µM	> 100 µM	> 100 µM	> 100 µM	> 100 µM	> 100 µM	> 100 µM	> 100 µM	> 100 µM	> 100 µM
CSc1sc2ccccc2[s+]1	> 100 µM	> 100 µM	> 100 µM	> 100 µM	> 100 µM	> 100 µM	> 100 µM	> 100 µM	> 100 µM	> 100 µM	> 100 µM	> 100 µM
COc1ccc2c(c1)CCN1CCc3ccccc3CC21 (stereo unspecified)	> 100 µM	56.1 µM	> 100 µM	> 100 µM	48.1 µM	36 µM				46.1 µM	> 100 µM	
C=CCOc1ccc(C2(O)c3ccccc3C3=NCCCN32)cc1 (stereo unspecified)	> 72.2 µM	> 100 µM	47 µM	> 100 µM	43.3 µM	> 100 µM				43.5 µM	> 100 µM	
CC(=O)O[C@]12CCCCCC1C1(O)C(O)CCCC[C@H]12 (stereo partly specified)	> 100 µM	> 100 µM	> 100 µM	> 100 µM		> 100 µM	> 100 µM	> 100 µM	> 100 µM	> 100 µM	> 100 µM	
Nc1[nH]nc2nc3ccc(C(F)(F)F)cc3nc12	> 100 µM	97.3 µM	84.3 µM	> 100 µM	> 100 µM	49.9 µM				57.3 µM	> 100 µM	
C=CCOc1ccc(C2C(C(=O)OCC)C(=O)CC(C)(O)C2C(=O)OCC)cc1OC (stereo unspecified)	> 100 µM	> 100 µM	> 100 µM	> 100 µM	> 100 µM	> 100 µM				> 100 µM	> 100 µM	
CC(C)NC(=O)OCCN=c1c2ccccc2ccc2ccccc12	> 100 µM	> 100 µM	73.4 µM	> 100 µM	> 100 µM	64.4 µM				> 100 µM	> 100 µM	
On1c(-c2ccccc2)nc2ccccc2c1=S	> 100 µM	> 100 µM	42.8 µM	> 100 µM	> 100 µM	> 100 µM				> 100 µM	> 100 µM	
O=C1O[C@H](c2ccc3c(c2)OCO3)[C@H]2CO[C@@H](c3ccc4c(c3)OCO4)[C@@H]12	> 100 µM	> 100 µM	> 100 µM	> 100 µM	> 100 µM	> 100 µM				> 100 µM	> 100 µM	
CC12CCC(O)CC1CCC1C2CCC2(C)C(C(=O)CC(O)C(F)(F)F)CCC12 (stereo unspecified)	> 100 µM	26.7 µM	> 100 µM	19.6 µM	80 µM	11.1 µM				33.1 µM	> 100 µM	
CC(=O)O[C@H]1CC[C@@]2(C)C(=CC[C@H]3[C@@H]4C[C@H](N5CCOCC5)[C@H](OC(C)=O)[C@@]4(C)CC[C@@H]32)C1	> 100 µM	> 100 µM	> 100 µM	> 100 µM	> 100 µM	> 100 µM				> 100 µM	> 100 µM	
Cn1c2ccccc2c(=O)c2cccc(C(=O)NC(CCCN=C(N)N)C(=O)O)c21 (stereo unspecified)	> 100 µM	> 100 µM	> 100 µM	> 100 µM	> 100 µM	> 100 µM				> 100 µM	> 100 µM	
C[N+]12CCCCC1C(CN1C(=O)Cc3c4ccccc4c(c4ccccc34)CC1=O)CCC2 (stereo unspecified)	> 100 µM	> 100 µM	> 100 µM	> 100 µM	> 100 µM	> 100 µM				> 100 µM	> 100 µM	
CC(=O)NC1c2ccccc2C(C)(C)C12CCC1(CC2)OCCO1 (stereo unspecified)	> 100 µM	> 100 µM	> 100 µM	> 100 µM	> 100 µM	> 100 µM				> 100 µM	> 10 µM	
CCC1(C)C=Cc2c(cc(O)c3c(=O)c4ccccc4n(C)c23)O1 (stereo unspecified)	> 10 µM	> 10 µM	> 10 µM	> 10 µM	> 10 µM	> 10 µM				> 10 µM	> 10 µM	
CC(=O)[C@@]1(O)CC[C@H]2[C@@H]3C[C@H](C)C4=CC(=O)C=C[C@]4(C)[C@@]3(F)[C@@H](O)C[C@@]21C	> 100 µM	> 100 µM	> 100 µM	> 100 µM	> 100 µM	> 100 µM	> 100 µM	> 100 µM	> 100 µM	> 100 µM	> 100 µM	> 100 µM
O=NN(CCCl)C(=O)NC1CCC(O)CC1 (stereo unspecified)		> 80.2 µM	> 100 µM	> 100 µM	> 100 µM	> 100 µM	> 100 µM	> 100 µM		> 72.9 µM	> 100 µM	> 77 µM
O=[N+]([O-])/C(C(Cl)=C(Cl)Cl)=C(\N1CCCCC1)n1cncn1	32.7 µM	35.8 µM	43.8 µM	37.5 µM	40.5 µM	30.8 µM				30.3 µM	33.4 µM	
O=c1oc2ccc([N+](=O)[O-])cc2c(Nc2ccc3c(c2)Oc2ccccc2O3)c1[N+](=O)[O-]	> 100 µM	> 100 µM	44.2 µM	> 100 µM	66.4 µM	> 100 µM				40.2 µM	> 100 µM	
CC1=C(CO)C(=O)O[C@@H]([C@@H](CO)[C@H]2CCC3C4C[C@@H](O)[C@@]5(O)CC=CC(=O)[C@]5(C)C4CC[C@@]32C)C1 (stereo partly specified)	> 100 µM	> 100 µM	> 100 µM	> 100 µM	> 100 µM	57.1 µM				> 100 µM	> 100 µM	
Cc1ccc(S(=O)(=O)C(C#N)c2nc3ccccc3nc2-n2ccnc2)cc1 (stereo unspecified)	> 100 µM	> 100 µM	> 100 µM	> 100 µM	> 100 µM	> 100 µM		> 100 µM	> 100 µM	> 100 µM	> 100 µM	> 100 µM
